Source: patent US20170305882A1, “BENZYL SUBSTITUTED INDAZOLES AS BUB1 KINASE INHIBITORS” (Bayer Pharma Aktiengesellschaft, priority 2014, published 2017)

What was measured:
[1] = biological target: T1, (recombinant) catalytic domain of human Bub1 (amino acids 704-1085) (Homo sapiens, UniProt O43683); assay: Equilibrium probe competition assay (TR-FRET kinase binding assay); conditions: read-out: IC50 (Assay 5, probe competition)
T1 construct: catalytic domain of human Bub1 (amino acids 704-1085); 6xHis (N); made in house; host or cells: Hi5 insect cells
Description: Equilibrium Probe Competition Assay:
Bub1 binding affinity of compounds described in the present invention were quantified using a time-resolved fluorescence energy transfer (TR-FRET) kinase binding assay which measures displacement of the synthetic fluorescent probe 5-[({2-[2-({2-[1-(4-ethoxy-2,6-difluorobenzyl)-1H-indazol-3-yl]-4-(pyridin-4-ylamino)pyrimidin-5-yl}oxy)ethoxy]ethyl}carbamothioyl)amino]-2-(6-hydroxy-3-oxo-3H-xanthen-9-yl)benzoic acid (5-5-1) by the (recombinant) catalytic domain of human Bub1 (amino acids 704-1085). The enzyme was expressed in Hi5 insect cells with N-terminal 6×His/AviTag@ seqences, purified by affinity-(Ni-NTA) and size exclusion chromatography and site-specific biotinylated ex-vivo using a commercially available kit (Avidity).
In a typical assay 11 different concentrations of each compound (0.1 nM, 0.33 nM, 1.1 nM, 3.8 nM, 13 nM, 44 nM, ˜0.15 μM, ˜0.51 μM, ˜1.7 μM, 5.9 μM and 20 μM) were tested in duplicate within the same microtiter plate. To this end, 100-fold concentrated compound solutions (in DMSO) were made by serial dilution (1:3.4) of freshly prepared 2 mM stocks in a clear low volume 384-well source microtiter plate (Greiner Bio-One, Frickenhausen, Germany), from which 50 nl of compounds were transferred into a black low volume test microtiter plate from the same supplier. Subsequently 2 μL of a solution containing biotinylated Bub1 (the final concentration of Bub1 was adjusted depending on the activity of the enzyme lot in order to be within the linear dynamic range of the assay: typically ˜200 pM were used) and 1 nM Streptavidin Terbium Cryptate (Cisbio, No. 610SATLB) in aqueous assay buffer [50 mM Tris/HCl pH 7.5, 200 mM potassium chloride (KCl), 1.0 mM dithiothreitol (DTT), 0.1 mM sodium ortho-vanadate, 1% (v/v) glycerol, 0.01% (w/v) bovine serum albumine (BSA), 0.005% (v/v) Triton X-100 (Sigma), were added to the compounds in the test plate and the mixture was incubated for 15 min at 22′C to allow pre-equilibration of the putative enzyme-inhibitor complexes before the start of the probe competition reaction, which was initiated by the addition of 3 μL 1.67-fold concentrated solution (in assay buffer) of 5-5-1 (final concentration: 1.5 nM). The resulting mixture (5 μL final volume) was Incubated at 220 during 0, 15, 30, 60, 120, 240 and 1440 min. After each time point the resonance energy transfer from the Streptavidin Tb cryptate to the 3′,6′-dihydroxy-3H-spiro[2-benzofuran-1,9′-xanthen]-3-one moiety of 5-5-1 was measured in order to quantify the amount of fluorescent probe displaced by the test compounds. To this end, the fluorescence emissions at 520 nm and 490 nm after excitation at 330-350 nm were measured in a Pherastar FS TR-FRET plate reader, (BMG Lab technologies, Offenburg, Germany) and the ratio of the emissions (520 nm/490 nm) was taken as Indicator for the amount of Bub1/5-5-1 equilibrium complexes. The data were normalized using two sets of control wells for high-(=enzyme reaction without inhibitor=0%=Minimum inhibition) and low-(=all assay components without enzyme=100%=Maximum inhibition) Bub1 activity. IC50 values were calculated by fitting the normalized inhibition data to a 4-parameter logistic equation (Minimum, Maximum, IC50, Hill; Y=Max+(Min−Max)/(1+(X/IC50)Hill)).

[2] = system: histone 2A phosphorylation (kinase activity of Bub1); assay: H2A Formation-Assay (cell-based mechanistic assay, co-treatment with Nocodazole); conditions: 16 h, read-out: Biological Assay 4.1: H2A Formation IC50
[3] = biological target: T1, (recombinant) catalytic domain of human Bub1 (amino acids 704-1085); assay: Bub1 kinase assay (TR-FRET); type: biochemical; conditions: ATP 10 μM, 60 min reaction, pH 7.5; read-out: Biological Assay 1: Bub1 kinase assay median IC50
[4] = system: pre-induced phospho-histone 2A (kinase activity of Bub1); assay: H2A Abrogation-Assay (cell-based mechanistic assay, pre-treatment with Nocodazole); conditions: Nocodazole 16 h, then test compound 1 h; read-out: Biological Assay 4:2: H2A Abrogation IC50
Description: Biological Assay 4.2: Abrogation-Assay
This assay measures the inhibition of histone 2A phosphorylation, which was induced by pre-treatment of the cells with Nocodazole, by a Bub1 kinase inhibitor.

[5] = system: HeLa human cervical tumor cells; assay: Proliferation Assay (HeLa + Paclitaxel); type: cell-based; conditions: 3 nM paclitaxel, test substance 92 hours; read-out: Biological Assay 3: Proliferation Assay (HeLa + Paclitaxel) IC50
Description: Proliferation Assay (HeLa+Paclitaxel):

[6] = system: HeLa human cervical tumor cells; assay: Proliferation assay (HeLa cell line); type: cell-based; conditions: 96 h, 4 days incubation, crystal violet, read-out: Biological Assay 2: Proliferation assay (HeLa cell line) median IC50
Description: Human tumour cells were originally obtained from the American Type Culture Collection (ATCC), the Deutsche Sammlung von Mikroorganismen und Zellkulturen (DSMZ, German Collection of Microorganisms and Cell Cultures), or Epo GmbH Berlin.

Row | SMILES | IC50 ([1]; Time 15 min) [nM] | IC50 ([1]; Time 30 min) [nM] | IC50 ([1]; Time 60 min) [nM] | IC50 ([1]; Time 90 min) [nM] | IC50 ([1]; Time 120 min) [nM] | IC50 ([1]; Time 240 min) [nM] | IC50 ([1]; Time 1440 min) [nM] | IC50 [2] [nM] | IC50 [3] [nM] | IC50 [4] [nM] | IC50 [5] [nM] | IC50 [6] [nM]
1 | CCOc1cc(F)c(Cn2nc(-c3ncc(OCCCO)c(Nc4ccncc4Cl)n3)c3ccccc32)c(F)c1 [Example 2-1-6, 3-{[4-[(3-chloropyridin-4-yl)amino]-2-[1-(4-ethoxy-2,6-difluorobenzyl)-1H-indazol-3-yl]pyrimidin-5-yl}oxy)propan-1-ol] | 1.7 | 0.87 | 0.85 | 1.2 | 0.38 | 0.31 | 0.2 | 45 | 8.3 | 58 | 120 | 5900
2 | CCOc1cc(F)c(Cn2nc(-c3ncc(OCCCO)c(Nc4ccnc(NC(C)=O)c4)n3)c3ccccc32)c(F)c1 [Example 2-1-5, N-[4-({2-[1-(4-ethoxy-2,6-difluorobenzyl)-1H-indazol-3-yl]-5-(3-hydroxypropoxy)pyrimidin-4-yl}amino)pyridin-2-yl]acetamide] | 0.59 | 0.49 | 0.32 | 0.26 | 0.2 | 0.16 | 0.098 | 28 | 3.5 | 4.4 | 100 | > 10000
3 | OCCCOc1cnc(-c2nn(Cc3c(F)cc(OCC(F)(F)F)cc3F)c3ccccc23)nc1Nc1ccncc1Cl [Example 2-1-20, 3-[(4-[(3-chloropyridin-4-yl)amino]-2-{1-[2,6-difluoro-4-(2,2,2-trifluoroethoxy)benzyl]-1H-indazol-3-yl}pyrimidin-5-yl)oxy]propan-1-ol] |  |  |  |  |  |  |  | 110 | 13 | > 1000 | 98 | 6200
4 | CCOc1cc(F)c(Cn2nc(-c3ncc(OCCCO)c(Nc4ccnc(NC(=O)C5CC5)c4)n3)c3ccccc32)c(F)c1 [Example 2-1-15, N-[4-({2-[1-(4-Ethoxy-2,6-difluorobenzyl)-1H-indazol-3-yl]-5-(3-hydroxypropoxy)pyrimidin-4-yl}amino)pyridin-2-yl]cyclopropancarboxamide] |  |  |  |  |  |  |  | 37 | 8 | 4.6 | 140 | 3000
5 | CCOc1cc(F)c(Cn2nc(-c3ncc(OCCCO)c(Nc4cc(C)nc(C)n4)n3)c3ccccc32)c(F)c1 [Example 2-1-14, 3-({4-[(2,6-Dimethylpyrimidin-4-yl)amino]-2-[1-(4-ethoxy-2,6-difluorobenzyl)-1H-indazol-3-yl]pyrimidin-5-yl}oxy)propan-1-ol] |  |  |  |  |  |  |  | 8.7 | > 20000 | 0.92 | 39 | > 10000
